Source: patent publication US20100056565A1, “Heterocyclic Derivatives as M3 Muscarinic Receptors” (priority 2007, published 2010)
Where a name gives a salt, the structure may show the parent alone.

Target: T1, Recombinant human M3 receptor (Homo sapiens, UniProt P20309)
T1 construct: expressed in transfected cells; host or cells: CHO-K1 cells (membranes)
Experiment: biochemical
Type: binding
Conditions: M3 Ki (SPA format, SPA format)
Description: Recombinant human M3 receptor was expressed in CHO-K1 cells. Cell membranes were prepared and binding of [3H]-N-methyl scopolamine ([3H]-NMS) and compounds was assessed by a scintillation proximity assay (SPA). The incubation time was 16 hours at room temperature in the presence of 1% (v/v) DMSO. The assay was performed in white 96 well clear-bottomed NBS plates (Corning). Prior to the assay, the CHO cell membranes containing M3 receptor were coated onto SPA WGA (Wheat germ agglutinin) beads (GE Healthcare). Non specific binding was determined in the presence of 1 μM Atropine.
Radioactivity was measured on a Microbeta scintillation counter (PerkinElmer) using a 3H protocol with a 2 minutes per well read time. […] Concentration dependent inhibition of [3H]-NMS binding by compounds was expressed as pIC50.

T1 sequence (P20309 whole entry): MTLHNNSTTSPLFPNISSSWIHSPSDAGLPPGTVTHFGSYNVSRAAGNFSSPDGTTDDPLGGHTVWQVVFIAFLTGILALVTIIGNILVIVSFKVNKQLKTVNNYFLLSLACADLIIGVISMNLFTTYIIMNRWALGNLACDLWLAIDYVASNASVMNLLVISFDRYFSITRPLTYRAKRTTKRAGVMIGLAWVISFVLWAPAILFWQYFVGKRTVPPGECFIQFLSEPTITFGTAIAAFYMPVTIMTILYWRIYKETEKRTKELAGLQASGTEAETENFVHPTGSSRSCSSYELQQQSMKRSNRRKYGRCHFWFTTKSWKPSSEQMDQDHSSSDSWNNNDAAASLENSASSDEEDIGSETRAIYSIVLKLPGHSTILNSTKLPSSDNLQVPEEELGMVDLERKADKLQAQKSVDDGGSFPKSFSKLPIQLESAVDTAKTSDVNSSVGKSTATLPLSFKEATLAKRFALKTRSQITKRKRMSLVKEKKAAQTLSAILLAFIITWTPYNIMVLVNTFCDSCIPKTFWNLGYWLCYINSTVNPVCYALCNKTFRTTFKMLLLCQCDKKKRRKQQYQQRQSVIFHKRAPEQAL

Structure (SMILES) | Ki [nM]
O=C(O[C@H]1C[N+]2(Cc3cnc([C@](O)(c4ccccc4)C4CCCCC4)o3)CCC1CC2)c1ccccc1 [Example 14, (R)-3-benzoyloxy-1-[2-((R)-cyclohexyl-hydroxy-phenyl-methyl)-oxazol-5-ylmethyl]-1-azonia-bicyclo[2.2.2]octane; formate] | 5 to 20

Same assay, conditions: SPA format; read-out: M3 Ki (SPA format)

Structure (SMILES) | Ki [nM]
OC(c1ccccc1)(c1cc(C[N+]23CCC(CC2)C(CSc2ccc(F)cc2)C3)on1)C1CCCCC1 (single isomer, unassigned) [Example 125] | 5 to 20
OC(c1ccccc1)(c1cc(C[N+]23CCC(CC2)[C@@H](SCc2ccccc2)C3)on1)C1CCCCC1 (single isomer, unassigned) [Example 126] | < 5
OC(c1ccccc1)(c1noc(C[N+]23CCC(CC2)[C@@H](SCc2ccccc2)C3)n1)C1CCCCC1 (single isomer, unassigned) [Example 127] | < 5
OC(c1ccccc1)(c1noc(C[N+]23CCC(CC2)[C@@H](Oc2cccc(F)c2)C3)n1)C1CCCCC1 (single isomer, unassigned) [Example 128] | < 5
Cc1ccc(O[C@H]2C[N+]3(Cc4nc(C(O)(c5ccccc5)C5CCCCC5)no4)CCC2CC3)cc1Cl (single isomer, unassigned) [Example 129] | < 5
OC(c1ccccc1)(c1noc(C[N+]23CCC(CC2)[C@@H](OCc2ccc(F)cc2)C3)n1)C1CCCCC1 (single isomer, unassigned) [Example 130] | < 5
OC(c1ccccc1)(c1noc(C[N+]23CCC(CC2)[C@@H](Sc2ccccc2)C3)n1)C1CCCCC1 (single isomer, unassigned) [Example 131] | < 5
OC(c1ccccc1)(c1noc(C[N+]23CCC(CC2)[C@@H](CSc2ccccc2)C3)n1)C1CCCCC1 (single isomer, unassigned) [Example 132] | < 5
OC(c1ccccc1)(c1noc(C[N+]23CCC(CC2)C(CSc2cccc(F)c2)C3)n1)C1CCCCC1 (single isomer, unassigned) [Example 133] | < 5
OC(c1ccccc1)(c1cc(C[N+]23CCC(CC2)[C@@H](Oc2ccc(F)cc2)C3)on1)C1CCCCC1 (single isomer, unassigned) [Example 143] | < 5
OC(c1ccccc1)(c1noc(C[N+]23CCC(CC2)[C@H](COc2ccccc2)C3)n1)C1CCCCC1 (single isomer, unassigned) [Example 144] | < 5
O[C@@](c1ccccc1)(c1ncc(C[N+]23CCC(CC2)CC3)o1)C1CCCCC1 [Example 5, 1-[2-((S))-Cyclohexyl-hydroxy-phenyl-methyl)-oxazol-5-ylmethyl]-1-azonia-bicyclo[2.2.2]octane bromide] | < 5
O[C@@](c1ccccc1)(c1ncc(C[N+]23CCC(CC2)[C@H](Oc2ccccc2)C3)o1)C1CCCCC1 [Example 6, (S)-1-[2-((S)—Cyclohexyl-hydroxy-phenyl-methyl)-oxazol-5-ylmethyl]-3-phenoxy-1-azonia-bicyclo[2.2.2]octane bromide] | > 20
O[C@@](c1ccccc1)(c1ncc(C[N+]23CCC(CC2)[C@@H](Oc2ccccc2)C3)o1)C1CCCCC1 [Example 7, (R)-1-[2-((S)—Cyclohexyl-hydroxy-phenyl-methyl)-oxazol-5-ylmethyl]-3-phenoxy-1-azonia-bicyclo[2.2.2]octane bromide] | 5 to 20
O[C@](c1ccccc1)(c1ncc(C[N+]23CCC(CC2)[C@H](Oc2ccccc2)C3)o1)C1CCCCC1 [Example 8, (S)-1-[2-((R)—Cyclohexyl-hydroxy-phenyl-methyl)-oxazol-5-ylmethyl]-3-phenoxy-1-azonia-bicyclo[2.2.2]octane; bromide] | 5 to 20
O[C@](c1ccccc1)(c1ncc(C[N+]23CCC(CC2)[C@@H](Oc2ccccc2)C3)o1)C1CCCCC1 [Example 9, (R)-[2-((R)—Cyclohexyl-hydroxy-phenyl-methyl)-oxazol-5-ylmethyl]-3-phenoxy-1-azonia-bicyclo[2.2.2]octane; bromide] | < 5
O[C@](c1ccccc1)(c1ncc(C[N+]23CCC(CC2)[C@@H](OCc2ccccc2)C3)o1)C1CCCCC1 [Example 12, (R)-3-(Benzyloxy)-1-[2-(R)-cyclohexyl-hydroxy-phenyl-methyl)-oxazol-5-ylmethyl]-1-azonia-bicyclo[2.2.2]octane; bromide] | < 5

Structure (SMILES) | Ki [nM]
O=C(N[C@H]1C[N+]2(Cc3cnc([C@](O)(c4ccccc4)C4CCCCC4)o3)CCC1CC2)c1ccccc1 [Example 13, (R)-3-benzoylamino-1-[2-((R)-cyclohexyl-hydroxy-phenyl-methyl)-oxazol-5-ylmethyl]-1-azonia-bicyclo[2.2.2]octane; formate] | > 20
O=C(N[C@@H]1C[N+]2(Cc3cnc([C@](O)(c4ccccc4)C4CCCCC4)o3)CCC1CC2)c1ccccc1 [Example 15, (S)-3-Benzoylamino-1-[2-((R)-cyclohexyl-hydroxy-phenyl-methyl)-oxazol-5-ylmethyl]-1-azonia-bicyclo[2.2.2]octane; formate] | < 5
O[C@](c1ccccc1)(c1ncc(C[N+]23CCC(CC2)C(OCc2ccccc2)C3)o1)C1CCCCC1 (stereo partly drawn) [Example 16, 3-benzyloxy-1-[2-((R)-cyclohexyl-hydroxy-phenyl-methyl)-oxazol-5-ylmethyl]-1-azonia-bicyclo[2.2.2]octane; formate] | < 5
O=C(N[C@@H]1C[N+]2(Cc3cnc([C@](O)(c4ccccc4)C4CCCCC4)o3)CCC1CC2)c1ccc(Cl)cc1 [Example 19, (S)-3-(4-chloro-benzoylamino)-1-[2-((R)-cyclohexyl-hydroxy-phenyl-methyl)-oxazol-5-ylmethyl]-1-azonia-bicyclo[2.2.2]octane; formate] | < 5
N#Cc1ccc(CO[C@H]2C[N+]3(Cc4cnc([C@](O)(c5ccccc5)C5CCCCC5)o4)CCC2CC3)cc1 [Example 21, (R)-3-(4-cyano-benzyloxy)-1-[2-((R)-cyclohexyl-hydroxy-phenyl-methyl)-oxazol-5-ylmethyl]-1-azonia-bicyclo[2.2.2]octane; formate] | < 5
O[C@](c1ccccc1)(c1ncc(C[N+]23CCC(CC2)[C@@H](OCc2ccc(Cl)c(Cl)c2)C3)o1)C1CCCCC1 [Example 22, (R)-1-[2-((R)-cyclohexyl-hydroxy-phenyl-methyl)-oxazol-5-ylmethyl]-3-(3,4-dichloro-benzyloxy)-1-azonia-bicyclo[2.2.2]octane; formate] | < 5
O[C@](c1ccccc1)(c1ncc(C[N+]23CCC(CC2)[C@@H](OCc2ccc(Cl)cc2)C3)o1)C1CCCCC1 [Example 23, (R)-3-(4-Chloro-benzyloxy)-1-[2-((R)-cyclohexyl-hydroxy-phenyl-methyl)-oxazol-5-ylmethyl]-1-azonia-bicyclo[2.2.2]octane; bromide] | < 5
O[C@](c1ccccc1)(c1ncc(C[N+]23CCC(CC2)[C@H](COc2ccccc2)C3)o1)C1CCCCC1 [Example 24, (S)-1-[2-((R)—Cyclohexyl-hydroxy-phenyl-methyl)-oxazol-5-ylmethyl]-3-phenoxymethyl-1-azonia-bicyclo[2.2.2]octane; bromide] | < 5
OC(c1ccccc1)(c1ccccc1)c1ncc(C[N+]23CCC(CC2)[C@@H](COc2ccccc2)C3)o1 [Example 26, (R)-1-[2-(Hydroxy-diphenyl-methyl)-oxazol-5-ylmethyl]-3-phenoxymethyl-1-azonia-bicyclo[2.2.2]octane; bromide] | < 5
OC(c1ccccc1)(c1ccccc1)c1ncc(C[N+]23CCC(CC2)[C@@H](OCc2ccccc2)C3)o1 [Example 27, (R)-3-Benzyloxy-1-[2-(hydroxy-diphenyl-methyl)-oxazol-5-ylmethyl]-1-azonia-bicyclo[2.2.2]octane; bromide] | < 5
OC(c1ccccc1)(c1ccccc1)c1ncc(C[N+]23CCC(CC2)[C@@H](OCc2ccc(Cl)cc2)C3)o1 [Example 28, (R)-3-(4-Chloro-benzyloxy-1-[2-(hydroxy-diphenyl-methyl)-oxazol-5-ylmethyl]-1-azonia-bicyclo[2.2.2]octane; bromide] | 5 to 20
OC(c1ccccc1)(c1ncc(C[N+]23CCC(CC2)[C@@H](OCc2ccccc2)C3)s1)C1CCCCC1 (stereo partly drawn) [Example 29, (R)-3-Benzyloxy-1-[2-(cyclohexyl-hydroxy-phenyl-methyl)-thiazol-5-ylmethyl]-1-azonia-bicyclo[2.2.2]octane; bromide] | < 5
O[C@](c1ccccc1)(c1ncc(C[N+]23CCC(CC2)[C@@H](OCc2ccc(F)cc2)C3)o1)C1CCCCC1 [Example 32, (R)-1-[2-((R)—Cyclohexyl-hydroxy-phenyl-methyl)-oxazol-5-ylmethyl]-3-(4-fluoro-benzyloxy)-1-azonia-bicyclo[2.2.2]octane; bromide] | < 5
O[C@](c1ccccc1)(c1ncc(C[N+]23CCC(CC2)[C@@H](OCc2ccc(C(F)(F)F)cc2)C3)o1)C1CCCCC1 [Example 33, (R)-1-[2-((R)—Cyclohexyl-hydroxy-phenyl-methyl)-oxazol-5-ylmethyl]-3-(4-trifluoromethyl-benzyloxy)-1-azonia-bicyclo[2.2.2]octane; bromide] | < 5
Cc1ccc(CO[C@H]2C[N+]3(Cc4cnc([C@](O)(c5ccccc5)C5CCCCC5)o4)CCC2CC3)cc1 [Example 34, (R)-1-[2-((R)—Cyclohexyl-hydroxy-phenyl-methyl)-oxazol-5-ylmethyl]-3-(4-methyl-benzyloxy)-1-azonia-bicyclo[2.2.2]octane; bromide] | < 5
O[C@](c1ccccc1)(c1ncc(C[N+]23CCC(CC2)[C@@H](OCc2cccc(F)c2)C3)o1)C1CCCCC1 [Example 35, (R)-1-[2-((R)-cyclohexyl-hydroxy-phenyl-methyl)-oxazol-5-ylmethyl]-3-(3-fluoro-benzyloxy)-1-azonia-bicyclo[2.2.2]octane; formate] | < 5
